Results from patent US20140295045A1, “Pyridine Derivatives With Umami Flavour” (Givaudan S.A., priority 2009, published 2014).

What was measured:
Type in all cases: in vivo, human
[1] = test system: trained sensory panel; assay: Testing of compounds: tasting of 0.3% NaCl solution with 2 ppm compound by trained sensory panel; details: 2 ppm compound in a solution of 0.3% NaCl; trained sensory panel of 20 women
Experimental: Various compounds prepared in the previous examples were tested. Two solutions were prepared: A: a solution of 0.3% NaCl, B: a solution of 0.3% NaCl and 2 ppm compound as per Table 1. The samples were tasted by a trained sensory panel composed of 20 women aged between 30 and 60.

[2] = test system: trained sensory panel; assay: Comparative test with MSG: tasting of 0.3% NaCl / 0.03% MSG solution with compound; details: 5 ppm compound in 0.3% NaCl and 0.03% MSG; Solution A without compound: salty, umami
Experimental: Two solutions were prepared:
A: a solution of 0.3% NaCl and 0.03% MSG,
B: a solution of 0.3% NaCl, 0.03% MSG and 5 ppm of 1-(4-hydroxybenzo[d][1,3]dioxol-5-yl)-3-(pyridin-2-yl)propan-1-one.
(§1) The samples were tasted by a trained sensory panel composed of 20 women aged between 30 and 60.

[3] = test system: bench-top tasting panel; assay: Model chicken broth (no MSG added, 0.3% sugar added), blind umami ranking; details: for Level preferred by panelists in this base: model chicken broth, 0.3% sugar added, % by weight
Experimental: The following compositions are made and tested. Using a bench-top tasting panel (consisting of 10 panelists—flavorists, application experts), panelists were asked to record the sensory attribute differences (umami) between the samples. All samples were tasted blind and ranked on umami. Model Chicken Broth—no MSG Added, 0.3% Sugar Added The model chicken broth powder was prepared from 11.9 g chicken fat, 23.81 g salt, 14.29 g sugar, 0.95 g onion powder, 49.01 g chicken powder, 0.04 g turmeric powder. To prepare the model chicken broth 2.0 g of powder was mixed 98.0 g hot water.

[4] = test system: bench-top tasting panel; assay: Model chicken broth (no MSG added, no sugar added), blind umami ranking; details: for Level preferred by panelists in this base: model chicken broth, no MSG added, % by weight
Experimental: The following compositions are made and tested. Using a bench-top tasting panel (consisting of 10 panelists—flavorists, application experts), panelists were asked to record the sensory attribute differences (umami) between the samples. All samples were tasted blind and ranked on umami. Model Chicken Broth—no MSG Added, no Sugar Added The model chicken broth powder was prepared from 11.9 g chicken fat, 23.81 g salt, […], 0.95 g onion powder, 49.01 g chicken powder, 0.04 g turmeric powder. To prepare the model chicken broth 2.0 g of powder was mixed 98.0 g hot water.

[5] = test system: small group of flavourists; assay: Tomato soup formulation tasting against reference soup; details: 1.5 ppm compound in tomato soup containing MSG; 4 flavourists
Experimental: A tomato soup mix was prepared from 9.4 g sodium chloride, 1 g MSG, 0.08 g ribonucleotides (ex yeast), 32 g tomato powder (ex Spreda), 25.1 g glucose, 21 g starch (Ultrasperse™ 5 ex National Starch), 5 g palm fat powder, 3 g yeast powder, 1 g onion powder, 0.15 g carrot powder, 0.05 g ground white pepper, 0.3 g celery extract powder, 0.05 g ground laurel leaf powder, and 1.85 g sucrose. 25 g of the well-mixed ingredients was added to 250 g of boiling water and stirred until completely dissolved, to give a reference soup.
The reference soup was compared with a batch of the same soup containing 1.5 ppm of 1-(2-hydroxy-4-isobutoxyphenyl)-3-(pyridine-2-yl)propan-1-one.

[6] = test system: bench-top tasting panel; assay: Commercial organic chicken broth, blind umami ranking; details: for Level preferred by panelists in this base: commercial organic chicken broth, % by weight
From the text: The following compositions are made and tested. Using a bench-top tasting panel (consisting of 10 panelists—flavorists, application experts), panelists were asked to record the sensory attribute differences (umami) between the samples. All samples were tasted blind and ranked on umami. Commercial Organic Chicken Broth (Swanson's Certified Organic Chicken Broth—No added MSG, contains about 0.4% sugars)

[7] = test system: trained sensory panel; assay: Potato chips tasting
Experimental: Plain potato chips were prepared.
One part was flavoured with 1.2% sodium chloride (sample A),
One part was flavoured with 1.2% sodium chloride and 0.3% MSG (sample B),
One part was flavoured with 1.2% sodium chloride and 2 ppm of 1-(2-hydroxy-4-methylphenyl)-3-(pyridin-2-yl)propan-1-one (sample C).
as §1

[8] = test system: small group of flavourists; assay: Tomato ketchup tasting; details: 2 ppm compound in tomato ketchup; 4 flavourists
Experimental: A tomato ketchup was prepared from 19% tomato paste (28-30% dry weight), 8% vinegar (15%), 3% sodium chloride, 20% sugar and 50% water.
To one-half of the batch was added 2 ppm of 1-(2-hydroxy-4-methoxyphenyl)-3-(pyridin-2-yl)propan-1-one.

[9] = 0.002% compound in model chicken broth, sugar added, Control 6th
[10] = 0.001% compound in model chicken broth, Control 5th
[11] = 0.002% compound in commercial organic chicken broth, Control 5th

## O=C(CCc1ccccn1)c1ccc2c(c1O)OCO2 [1-(4-hydroxybenzo[d][1,3]dioxol-5-yl)-3-(pyridin-2-yl)propan-1-one]
[1]
  Taste description: Clearly umami, slightly yeasty, bouillon
[2]
  Taste description (Solution B): salty, umami, more bouillon-like, more complex, less sweet

## Cc1cc(O)c(C(=O)CCc2ccccn2)cc1C [1-(2-hydroxy-4,5-dimethylphenyl)-3-(pyridine-2-yl)propan-1-one]
[1]
  Taste description: Umami, sweet, savoury, salty
[3]; 0.002% compound in model chicken broth, sugar added
  Performance when evaluating for umami: performed well
[3]; [9]
  Finishing position in blind ranking of 6 samples on umami: 2
[3]
  Level preferred by panelists in this base: 0.002%

## COc1ccccc1C(=O)CCc1ccccn1 [1-(2-methoxyphenyl)-3-(pyridin-2-yl)propan-1-one]
[1]
  Taste description: Umami, slightly bitter

## CC(C)COc1ccc(C(=O)CCc2ccccn2)c(O)c1 [1-(2-hydroxy-4-isobutoxyphenyl)-3-(pyridine-2-yl)propan-1-one]
[4]; [10]
  Finishing position in blind ranking of 6 samples on umami: 4
[4]
  Level preferred by panelists in this base: 0.001%
[1]
  Taste description: Umami, sweet, salty, bouillon, lingering,
[5]
  Taste of test soup compared with reference soup: more umami, had a clear lingering effect, was more salty and was more complex
[3]; [9]
  Finishing position in blind ranking of 6 samples on umami: 4
[3]
  Level preferred by panelists in this base: 0.002%
[6]; [11]
  Finishing position in blind ranking of 6 samples on umami: 3
[6]
  Level preferred by panelists in this base: 0.002%

## Cc1cc(C)c(O)c(C(=O)CCc2ccccn2)c1 [1-(2-hydroxy-3,5-dimethylphenyl)3-(pyridine-2-yl)propan-1-one]
[1]
  Taste description: Umami

## N[C@@H](CCC(=O)O)C(=O)[O-].[Na+] [MSG, monosodium glutamate, reference compound]
[4]; 0.05% MSG (Reference) in model chicken broth
  Finishing position in blind ranking of 6 samples on umami: highest umami
[7]; potato chips with 1.2% sodium chloride and 0.3% MSG
  Taste description (sample B): salty and umami
[3]; 0.05% MSG (Reference) in model chicken broth, sugar added
  Finishing position in blind ranking of 6 samples on umami: highest umami
[6]; 0.05% MSG (Reference) in commercial organic chicken broth
  Finishing position in blind ranking of 6 samples on umami: highest umami

## CCOc1ccc(C(=O)CCc2ccccn2)c(O)c1 [1-(4-ethoxy-2-hydroxyphenyl)-3-(pyridine-2-yl)propan-1-one]
[1]
  Taste description: Umami, floral

## O=C(CCc1ccccn1)c1ccc(OC2CCCC2)cc1O [1-(4-(cyclopentyloxy)-2-hydroxyphenyl)-3-(pyridine-2-yl)propan-1-one]
[1]
  Taste description: Umami

## Cc1ccc(C(=O)CCc2ccccn2)c(O)c1 [1-(2-hydroxy-4-methylphenyl)-3-(pyridin-2-yl)propan-1-one]
[4]; 0.0005% compound in model chicken broth, Control 5th
  Finishing position in blind ranking of 6 samples on umami: 3
[4]
  Level preferred by panelists in this base: 0.0005%
[1]
  Taste description: Umami, sweet, licorice, savoury
[7]; potato chips with 1.2% sodium chloride and 2 ppm compound, sample A with salt only: salty
  Taste description (sample C): salty, strong umami, long lasting, savoury, bouillon
[7]; potato chips, sample C (1.2% sodium chloride, 2 ppm compound) versus sample A (salt) and sample B (salt, 0.3% MSG)
  Panel preference: preferred sample C over the other two samples
[3]; 0.001% compound in model chicken broth, sugar added, Control 6th
  Finishing position in blind ranking of 6 samples on umami: 5
[3]
  Level preferred by panelists in this base: 0.001%
[6]; 0.001% compound in commercial organic chicken broth, Control 5th
  Finishing position in blind ranking of 6 samples on umami: 2
[6]
  Level preferred by panelists in this base: 0.001%

## COc1ccc(C(=O)CCc2ccccn2)c(O)c1 [1-(2-hydroxy-4-methoxyphenyl)-3-(pyridin-2-yl)propan-1-one]
[4]; [10]
  Finishing position in blind ranking of 6 samples on umami: 2
[4]
  Level preferred by panelists in this base: 0.001%
[1]
  Taste description: umami, sweet, salty, longlasting
[3]; [9]
  Finishing position in blind ranking of 6 samples on umami: 3
[3]
  Level preferred by panelists in this base: 0.002%
[8]
  Taste of test ketchup compared with ketchup without the compound: clearly more umami, more salty and had a pleasant savoury note
[6]; [11]
  Finishing position in blind ranking of 6 samples on umami: 4
[6]
  Level preferred by panelists in this base: 0.002%

## O=C(CCc1ccccn1)c1ccc(OCC2CC2)cc1O [1-(4-cyclopropylmethoxy)-2-hydroxyphenyl)-3-(pyridine-2-yl)propan-1-one]
[1]
  Taste description: Umami

## Cc1ccc(O)c(C(=O)CCc2ccccn2)c1 [1-(2-hydroxy-5-methylphenyl)-3-(pyridine-2-yl)propan-1-one]
[1]
  Taste description: Umami

## Cc1ccc(CCC(=O)c2ccccc2O)nc1 [1-(2-hydroxyphenyl)-3-(5-methylpyridin-2-yl)propan-1-one]
[1]
  Taste description: Slightly umami, some green aftertaste,

## Cc1cccnc1CCC(=O)c1ccccc1O [1-(2-hydroxyphenyl)-3-(3-methylpyridin-2-yl)propan-1-one]
[1]
  Taste description: Slightly umami, savoury, meaty

## CCc1ccc(O)c(C(=O)CCc2ccccn2)c1 [1-(5-ethyl-2-hydroxyphenyl)-3-(pyridine-2-yl)propan-1-one]
[1]
  Taste description: Umami, slightly bitter
